Earlier results on one compound are cited in US20260258363A1, “THERAPY” (PLASTICELL LTD, priority 2023, published 2026).

This data set relates to bone marrow derived CD34+ cells. The note with it: pre-treatment of cells in vitro.

SMILES strings stand for the structures.

With `NCCCNCCS` [WR1065], the “enhancement of formation of CFU-GEMM and BFU-E colonies” value is no more than 38 fold.
